In patent US5196421A, “Excitatory amino acid receptor antagonists in methods for the use thereof” (priority 1992, dated 1993):

Assays:
[1] = tested on: AMPA receptor ([^3 H]AMPA binding, crude membranes of rat forebrain); assay: [^3 H]-AMPA displacement, EAA receptor binding; settings: 10 μM test compound, [^3 H]AMPA 5 nM, 100 mM KSCN
Protocol: (§1) Referring to Table IV, there are shown the results obtained in testing a representative number of these compounds. In Table IV, the activity of the compounds for EAA receptor binding is indicated. Compounds were evaluated for their ability to displace [^3 H]-CGS191755, [^3 H]-glycine, [^3 H]-AMPA and [^3 H]-kainate at a screening concentration of 10 μM.
(§2) Binding assays, except for glycine binding, were performed in accordance with the methods described in Schoepp et al., J. Pharmacology and Exp. Therap., Vol. 255, No. 3, pp. 1301-1308 (1990). For all binding assays, male Sprague-Dawley rats (150-175 g) were used. Displacement of the specific binding of ^3 H]CGS19755 (10 nM) to Triton-X-treated synaptosomal membranes of rat forebrain was used to determine NMDA receptor affinity. Nonspecific binding was determined using 10 μM L-glutamate. Samples were incubated in an ice bath for 30 minutes, and bound ligand was separated from the free ligand by rapid filtration through Whatman GF/B glass fiber filters.
The binding of [^3 H]AMPA (5 nM) was conducted with crude membranes of rat forebrain in the presence of 100 mM KSCN, as described by Nielsen et al., "Studies on Receptor-Active Conformations of Excitatory Amino Acid Agonists and Antagonists," Eur. J. Med. Chem. Chim. Ther. 21:433-437 (1986). Nonspecific binding was determined with 10 μM nonlabeled AMPA.

[2] = tested on: kainate (KA) receptor ([^3 H]Kainate binding, washed synaptosomal membranes from the rat forebrain); assay: [^3 H]-kainate displacement, EAA receptor binding; settings: 10 μM test compound, [^3 H]Kainate 5 nM, pH 7.4, 30 min
Protocol: as §1, §2
[^3 H]Kainate binding was performed using washed synaptosomal membranes from the rat forebrain, prepared as described by Simon et al., "Binding of [^3 H]Kainic Acid, an Analogue of L-Glutamate, to Brain Membranes," J. Neurochem. 26:141-147 (1976). [^3 H]Kainate (5 nM) was added to 50 mM Tris-HCl buffer (pH 7.4 at 4°) containing 200-300 μg/ml of tissue protein. Samples were incubated for 30 minutes in an ice bath and then rapidly filtered using a Brandel cell harvester and Whatman GF/C filters. Filters were washed twice with 3 ml of cold buffer. Nonspecific binding was determined using 100 μM nonlabeled kainate.

[3] = molecular target: T1, Strychnine-Insensitive [^3 H]Glycine Binding Sites, washed membranes of rat brain cortex (Rattus norvegicus, UniProt P35439); assay: biochemical; settings: 1 h, read-out: [^3 H]-Glycine Binding % DSPL10 @ 10 μM, 10 μM test compound, 60 minutes on ice
T1 construct: washed membranes of rat brain cortex; from tissue; host or cells: brain cortex membranes, male Sprague-Dawley rats (150-175 g)
Protocol: as §1, §2
The compounds were examined for their ability to displace [^3 H]-glycine from washed membranes of rat brain cortex according to the methods of Shinohara et al., "Ontogeny of Strychnine-Insensitive [^3 H]Glycine Binding Sites in Rat Forebrain", Neurosci. Lett. 105 (1990) 307-311. In each assay, […] [^3 H]-glycine and 25 μg tissue were incubated with test compounds (10 μM in a total volume of 0.5 ml for 60 minutes on ice; incubations were terminated by centrifugation. Non-specific binding was defined as that remaining in the presence of 10 μM D-serine.

| SMILES | AMPA % DSPL @ 10 μM [1] [%] | KA % DSPL @ 10 μM [2] [%] | inhibition at 10 µM [3] [%] |
| --- | --- | --- | --- |
| O=c1[nH]c2c(Cl)cc(Cl)cc2c2ccnn12 [Compound 33, 7,9-dichloropyrazolo[1,5-c]quinazolin-5(6H)-one] | 5.1 | 7.4 | -3 |
| Cc1cc2c3ccccc3[nH]c(=O)n2n1 [Compound 34, 2-methylpyrazolo[1,5-c]quinazolin-5(6H)-one] | 0.2 | 0.9 | 13 |
| O=c1[nH]c2cc(C(F)(F)F)ccc2c2ccnn12 [Compound 35, 8-trifluoromethylpyrazolo[1,5-c]quinazolin-5(6H)-one] | 54.8 | 8.4 | 51 |
| Clc1cc2ncc3nccn3c2cc1Cl [Compound 36, 7,8-dichloroimidazo[1,2-a]quinoxaline] | 53.3 | 23.6 | 88 |
| O=c1[nH]c2ccc(Cl)cc2c2nc3ccccc3n12 [Compound 38, chlorobenzimidazo[1,2-a]quinazolin-4(5H)-one] | 4.1 | -0.8 | 3 |
